Test results published in US20080119496A1, “7-Substituted Purine Derivatives for Immunosuppression” (PHARMACOPEIA DRUG DISCOVERY, INC., priority 2006, published 2008).

What was measured:
[1] = system: IL-2-induced IFN-γ production; assay: IL-2-Induced IFN-γ Production in the Mouse; format: in vivo; details: po, 1 h, by gavage one hour before IL-2, serum IFN-γ, female BALB/c mice, read-out: inhibition of IL-2-induced IFN-gamma production
Experimental: Administration of IL-2 leads to an increase in serum IFN-γ in the mouse due to NK secretion of the cytokine (Thornton S, Kuhn K A, Finkelman F D and Hirsch R. NK cells secrete high levels of IFN-γ in response to in vivo administration of IL-2. Eur J Immunol 2001 31:3355-3360). The experiment was carried out essentially according to the protocol in Thornton et al. and the test compounds were administered in order to determine the level of inhibition attained. In summary, female BALB/c mice were fasted for 12-18 hours before a study but had free access to water at all times. Test compounds were administered by gavage one hour before intraperitoneal injection of IL-2 and capture antibody. At termination of the studies, the mice were sacrificed by carbon dioxide inhalation, terminal blood samples were collected by cardiac puncture and serum was generated. Serum was stored frozen until it was assayed for IFN-γ, as described by the kit manufacturer (BD Pharmingen™, San Diego, Calif.).

[2] = system: spontaneous autoimmune diabetes; details: NOD mouse; cited from earlier work
GVHD = details: reviewed in Cetkovic-Cvrlje and Ucken, 2004; cited from earlier work
kidney transplantation = details: orally active; Changelian, et al., 2003; cited from earlier work
heart transplantation = details: orally active; Changelian, et al., 2003; cited from earlier work

| SMILES | inhibition at 30 mg/kg [1] | also measured |
| --- | --- | --- |
| C[C@@H]1CCN(C(=O)CC#N)C[C@@H]1N(C)c1ncnc2[nH]ccc12 [CP690550] | 96% |  |
| O=c1[nH]c2cnc(-n3cnc4ccccc43)nc2n1[C@@H]1CCOc2c(F)cccc21 [Example 16, 2-(1H-Benzo[d]imidazol-1-yl)-9-((R)-8-fluorochroman-4-yl)-7H-purin-8(9H)-one] | > 40% |  |
| COc1cc2ncnc(Nc3ccc(O)cc3)c2cc1OC [JANEX-1] |  | spontaneous autoimmune diabetes development [2]: prevent spontaneous autoimmune diabetes development; severity of GVHD (GVHD): attenuate the severity of GVHD |
| C[C@@H]1CCN(C(=O)CC#N)C[C@@H]1N(C)c1ncnc2[nH]ccc12 [CP-690,550] |  | animal survival / immunosuppression (kidney transplantation): prolong animal survival; animal survival / immunosuppression (heart transplantation): prolong animal survival |
| Cn1c(=O)n(C2CCOc3c(F)cc(F)cc32)c2nc(-n3cnc4ccc(C#N)cc43)ncc21 (stereo not shown) [Example 501] | > 40% |  |
| Cn1c(=O)n(C2CCOc3ccc(F)cc32)c2nc(-n3cnc4ccc(C#N)cc43)ncc21 (stereo not shown) [Example 504] | > 40% |  |
| O=c1[nH]c2cnc(-n3cnc4cc(F)ccc43)nc2n1[C@@H]1CCOc2c(F)cccc21 [Example 28, 2-(5-Fluoro-1H-benzo[d]imidazol-1-yl)-9-((R)-8-fluorochroman-4-yl)-7H-purin-8(9H)-one] | > 40% |  |
| Cn1c(=O)n([C@@H]2CCOc3c(F)cccc32)c2nc(-n3cnc4ccc(C#N)cc43)ncc21 [Example 505] | > 40% |  |
